# Entries after “also recorded” stand apart in the source; their conditions may differ. No end group written: not given here.
# Tests used:
# Format in all cases: cell-based, mouse
# Preovulatory COCs [1] = test: Meiotic resumption after 18 hours, CNP-53 dose range (Example 5)
# Description: The materials and methods used in this further example are accordingly in common with the materials and methods used in Example 4 but for the use of CNP-53 instead. Cumulus-oocyte complexes from 24-25 day-old mice were isolated from in vivo grown antral follicles post 48 h eCG stimulation. Mice were injected with 2.5 IU eCG when they were 22-23 days-old. Intact COCs were put in culture for a period of 18 hours in presence of the following doses of CNP-53: • Control (No CNP)* • 0.1 nM • 1 nM • 10 nM • 50 nM • 100 nM • 1 μM • Control 25 nM CNP-22*
# *Two control conditions were included: 1) 25 nM CNP-22 (standard dose known and used in previous experiments to maintain meiotic arrest), 2) a control condition where CNP is not present in the culture media.
# Differences in the rate of oocyte meiotic resumption (per meiotic stage) were assessed by ANOVA followed by a Tukey's Multiple Comparison Test, p<0.001. Percentages data were transformed (arcsine) before performing statistical analysis.
# [2] = test system: cumulus-enclosed oocytes from early antral follicles; test: Developmental competence after capacitation culture with CNP or Cilostamide, IVM and IVF (Example 3); conditions: 48 hours capacitation culture, IVM with EGF, IVF
# Description: Immature cumulus-oocyte complexes were isolated from early antral follicles (from unstimulated 19-20 day-old mice). COCs were placed in basal culture medium for a period of 48 hours in presence of either CNP or Cilostamide (PDE3-Inhibitor); similar to example 2.
# Following the capacitation culture, COCs were matured in presence of Epidermal growth factor (EGF) and in-vitro fertilized. Post fertilization embryo development was evaluated.
# Acquisition of oocyte competence under each condition was evaluated by their capacity to mature, fertilize (2-cell rate) and to produce good quality blastocyst (by day 5 of embryo culture).
# Differences in the rate of fertilization and blastocyst formation between CNP and Cilostamide groups were assessed by chi-square.
# Immature COCs = test: Meiotic arrest of immature COCs from small antral follicles, 48 hours culture
# From the text: (§1) For the collection of immature COCs, compact COCs of the first wave of follicular development were collected from small antral follicles of pre-pubertal mice (19-21 days-old), without prior gonadotropin administration. For the collection of pre-ovulatory COCs (controls), compact COCs were collected by puncturing large antral follicles of pre-pubertal female mice (25-27 days-old) following 48 hrs of priming with 2,5IU 2.5 IU equine Chronic Gonadotropin (eCG, Folligon, Intervet, Oss, The Netherlands). Collection medium consisted of Leibovitz L-15, containing 10% Heat-inactivated Foetal Bovine Serum (FBS), 100lU/ml 100 IU/ml penicillin, 100 μg/ml streptomycin (all from Life Technologies, Gent, Belgium) and supplemented with 200 μM 3-Isobutyl-1-methylxanthine (IBMX; Sigma, Schnelldorf, Germany) to prevent meiosis reinitiation during the period of collection and pre culture handling.
# (§2) Basal culture medium for the culture of COCs (Pre-IVM and IVM phases) consisted of α-MEM, 2.5% FBS (both from Life Technologies, Gent, Belgium) and 5 ng/mL Insulin, 5 ug/mt ug/ml. Apo-Transferrin, 5 ng/mL Sodium selenite (All from Sigma, Schnelldorf, Germany).
# At specified time-points oocytes were mechanically freed from compact or expanded cumulus cells by using a mouth controlled fine bore glass pipette. Meiotic reinitiation was analyzed by assessing the nuclear maturational stage under an inverted microscope equipped with a Hoffman modulation contrast system (Nikon, Tokyo, Japan). Nuclear maturation was scored as GV (Germinal vesicle stage), GVBD (when GV non visible), PB (first polar body observed in perivitelline space) or DEG (when the oocyte was degenerated). […]
# Immature COCs were retrieved from small antral follicles of female mice aged 19-20 days-old and placed in culture for 48 hours in presence of 25 nM CNP-22 and presence or absence of 10 nM 17-β-estradiol; additionally the effects of the further addition of 2.5 or 5 mlU/mL mIU/ml FSH and/or 50 ng/mL GDF9 were evaluated.
# [3] = test system: COCs from early antral follicles; test: Cumulus-oocyte connections (transzonal projections) after capacitation culture with CNP or PDE3 inhibitor (Example 2); conditions: 48 h culture, F-actin staining of zona pellucida, no FSH; listed as CNP
# Description: Basal culture medium for the culture of COCs (Pre-IVM and IVM phases) consisted of α-MEM, 2.5% FBS (both from Life Technologies, Gent, Belgium) and 5 ng/mL Insulin, 5 ug/mL Apo-Transferrin, 5 ng/mL Sodium selenite (All from Sigma, Schnelldorf, Germany). Capacitation medium consisted of basal medium supplemented with either 25 nM CNP or 1 μM Org9935 or 1 μM Cilostamide in combination with 10 nM E2 17-β-estradiol. CNP was obtained from Phoenix Europe (Karlsruhe, Germany), while Cilostamide was obtained from Enzo Life Sciences (Antwerpen, Belgium). Since the aim of the experiment was to make evident potential differences between CNP and PDE3-inhibitors, avoiding potential interference of FSH was crucial, therefore the latter was omitted from capacitation medium. When tested in the presence of FSH, the latter masked the effect of CNP on the connection between the oocyte and surrounding layers of cumulus cells, in having itself a contribution to said connection which is even apparent in the presence of a PDE3-inhibitor (data not shown). […]
# In FIG. 7 average pixel intensity was used as a tool to quantify positive actin staining (TZP) going through zona pellucida. […]
# Pre-ovulatory COCs [4] = test: Meiotic arrest of pre-ovulatory COCs cultured 18 hours with CNP-22 (Example 1)
# From the text: as §1, §2
# (§3) At specified time-points oocytes were mechanically freed from compact or expanded cumulus cells by using a mouth controlled fine bore glass pipette. Meiotic reinitiation was analyzed by assessing the nuclear maturational stage under an inverted microscope equipped with a Hoffman modulation contrast system (Nikon, Tokyo, Japan). Nuclear maturation was scored as GV (Germinal vesicle stage), GVBD (when GV non visible), PB (first polar body observed in perivitelline space) or DEG (when the oocyte was degenerated).
# (§4) Pre-ovulatory COCs, retrieved from gonadotropin-primed mice (aged 26-27 days-old), were placed in culture, for 18 hours, in presence of 0 (Control), 1, 10, 100 nM CNP-22 and in combination with 4 ng/mL EGF.
# Preovulatory COCs [5] = test: Meiotic resumption after 18 hours, CNP-22 dose range (Example 4)
# Description: The materials and methods used in this further example are accordingly in common with the materials and methods used in Example 1. Cumulus-oocyte complexes from 24-26 day-old mice were isolated from in vivo grown antral follicles post 48 h equine Chronic Gonadotropin stimulation (eCG, Folligon, Intervet, Oss, The Netherlands). Mice were injected with 2.5 IU eCG when they were 22-24 days-old. Intact COCs with at least 2 layers of cumulus cells were put in culture for a period of 18 hours in presence of the following doses of CNP: • Control (No CNP)* • 0.1 nM** • 1 nM • 10 nM • 50 nM** • 100 nM • 1 μM**
# COCs were collected and cultured according to the previous dose experiments in mice, provided in the Example 1.
# Differences in the rate of oocyte meiotic resumption (per meiotic stage) were assessed by ANOVA followed by a Tukey's Multiple Comparison Test, p<0.01. Percentages data were transformed (arcsine) before performing statistical analysis.
# Oocyte meiotic arrest was confirmed by the presence of an intact germinal vesicle (GV) under the inverted microscope, […]
# Pre-ovulatory COCs [6] = test: EGFR-dependent meiotic resumption of pre-ovulatory COCs in presence of CNP-22 and EGF; conditions: for PB rate: 18 hours
# From the text: as §1, §2
# For experiments involving IVM, recombinant Epidermal growth Factor (r-EGF) (Roche; Mannheim, Germany) and recombinant mouse Epiregulin (EREG) (R&D systems Europe; Oxon, United Kingdom) were used as ovulatory stimuli and the cultures lasted 18 hrs.
# as §3, §4
# Pre-ovulatory COCs, retrieved from gonadotropin-primed mice, were placed in culture in absence (controls) or presence of 25 nM CNP-22 4 ng/mL EGF, and meiotic maturation was assessed at 2, 4 and 6 hours. While meiotic resumption increased from 2 to 6 hours in the control group, few GVBDs were induced in the CNP-22 EGF treated group (≤11%), within the same period of time (FIG. 2A).
# [7] = 1 nM, 10 nM, 50 nM and 100 nM, 18 hours
substance,measurement,setting,value
"C-type natriuretic peptide (GLSKGCFGLKLDRIGSMSGLGC; ends and bridges not checked; cysteine pairing not given here; UniProt P23582 105-126, looked up) [CNP-22, 22 amino acid C-type natriuretic peptide, obtained from Phoenix Europe]",oocytes under meiotic arrest (GV rate),"Preovulatory COCs [1]; 25 nM CNP-22 positive control, 18 hours",75%
same,"fertilization rate, CNP vs Cilostamide",[2],no difference
same,"blastocyst formed per fertilized egg, CNP vs Cilostamide",[2]; day 5,significantly higher
same,oocytes maintained in meiotic arrest,"Immature COCs; 1 nM, 10 nM, 25 nM, or 50 nM CNP, oocytes from the smallest size of follicles",~100%
same,GV rate,"Immature COCs; 25 nM CNP alone, 48 hours",26%
same,maintenance of meiotic arrest in immature COCs,"Immature COCs; CNP-22 alone, culture up to 48 hours (data not shown)",can maintain meiotic arrest for 24 hours but not for 48 hours
same,transzonal projections / connectivity between oocytes and cumulus cells,[3],full with transzonal projections; also recorded: kept better the connectivity between oocytes and cumulus cells
same,GV rate at the end of culture,"Pre-ovulatory COCs [4]; 1 nM CNP-22, 18 hours",48%
same,GV rate at the end of culture,"Pre-ovulatory COCs [4]; 10 nM CNP-22, 18 hours",93%
same,GV rate at the end of culture,"Pre-ovulatory COCs [4]; 100 nM CNP-22, 18 hours",96%
same,time meiotic arrest is maintained,Pre-ovulatory COCs [4]; pre-ovulatory COCs,at least 24 hours
same,percentage of oocytes at the GVBD-stage vs control,"Preovulatory COCs [5]; 0.1 nM to 1 μM, 18 hours",No significant differences
same,maintaining oocytes arrested at the GV stage,"Preovulatory COCs [5]; 0.1 nM, 18 hours",suboptimal
same,oocytes in meiotic arrest (GV rate),"Preovulatory COCs [5]; 1 nM CNP-22, 18 hours",80%
same,oocytes extruding the first polar body (PB rate),Preovulatory COCs [5]; [7],low proportion or lack
same,oocytes in meiotic arrest (GV rate),"Preovulatory COCs [5]; 10 nM CNP-22, 18 hours",98%
same,oocytes in meiotic arrest (GV rate),"Preovulatory COCs [5]; 50 nM CNP-22, 18 hours",94%
same,oocytes in meiotic arrest (GV rate),"Preovulatory COCs [5]; 100 nM CNP-22, 18 hours",87%
same,maintaining oocytes arrested at the GV stage,"Preovulatory COCs [5]; 1 μM, 18 hours",suboptimal
same,rate of meiotic arrest in preovulatory oocytes,Preovulatory COCs [5]; dose interval 1 nM to 100 nM,above 80%
same,PB rate,Pre-ovulatory COCs [6]; 1 nM CNP-22 with 4 ng/mL EGF,92%
same,PB rate,Pre-ovulatory COCs [6]; 10 nM CNP-22 with 4 ng/mL EGF,35%
same,GVBDs induced,"Pre-ovulatory COCs [6]; 25 nM CNP-22, 4 ng/mL EGF, 2 to 6 hours",≤ 11%
same,occurrence of PB oocytes,"Pre-ovulatory COCs [6]; 25 nM CNP-22, 4 ng/mL EGF, 24 hours",93%
same,PB rate,Pre-ovulatory COCs [6]; 100 nM CNP-22 with 4 ng/mL EGF,15%
same,delay of EGFR-induced meiotic resumption vs control,Pre-ovulatory COCs [6]; COCs kept under meiotic arrest by CNP,6 h
"CNP-53: CNP analogue; endogenous form of C-type natriuretic peptide containing a 53-amino acid sequence (DLRVDTKSRAAWARLLQEHPNARKYKGANKKGLSKGCFGLKLDRIGSMSGLGC; ends and bridges not checked; cysteine pairing not given here; UniProt P23582 74-126, looked up)",percentage of oocytes at the GVBD-stage vs control,"Preovulatory COCs [1]; 0.1 nM to 1 μM, 18 hours",No significant differences
same,maintaining oocytes arrested at the GV stage,"Preovulatory COCs [1]; 0.1 nM, 18 hours",suboptimal
same,oocytes under meiotic arrest (GV rate),"Preovulatory COCs [1]; 1 nM CNP-53, 18 hours",66%
same,proportion of oocytes extruding the first polar body vs control without CNP,Preovulatory COCs [1]; [7],significant different
same,oocytes under meiotic arrest (GV rate),"Preovulatory COCs [1]; 10 nM CNP-53, 18 hours",98%
same,oocytes under meiotic arrest (GV rate),"Preovulatory COCs [1]; 50 nM CNP-53, 18 hours",72%
same,oocytes under meiotic arrest (GV rate),"Preovulatory COCs [1]; 100 nM CNP-53, 18 hours",69%
same,maintaining oocytes arrested at the GV stage,"Preovulatory COCs [1]; 1 μM, 18 hours",suboptimal
